Entries after “also recorded” stand apart in the source; their conditions may differ.
Assays:
[1] = NMR-based stability analysis (hydrolysis of acyl hydrazone to aldehyde); format: physicochemical; details: deuterated phosphate buffer pD = 7.9 with DMSO-d6, 24 h
Protocol: The formation of acyl hydrazones from aldehydes is a reversible reaction. […] The strongly divergent relative activities of the aldehydes 8a and 9a compared to the acyl hydrazones 8 and 9 imply that the activity of the acyl hydrazones is not a consequence of aldehyde formation.
Na2DPO4 (C/D/N Isotopes, 8.5 mM) and NaD2PO4 (C/D/N Isotopes, 3.3 mM) were dissolved in D2O to give a total phosphate concentration of 11.8 mM. The measured pH of 7.5 corresponds to a pD of 7.91 according to the literature.
This reduction tails off, consistent with the idea that inhibition of STAT3 by 8 is a slow but reversible process. An alternative explanation for time-dependent inhibition would be covalent modification of the Michael acceptor of the chromones by the protein. While we cannot formally exclude this possibility, two observations argue against cysteine alkylation as the […]
double bond of 8. B) Secondly, omission of the strong nucleophile dithiothreitol (DTT) from the assay […]
easily susceptible to covalent modification by nucleophiles. Data after 2 h of incubation are shown. C) Activity of 8 in a fluorescence polarization assay against wild-type STAT3 or a STAT3 Glu594Ala mutant after 2 h incubation in the presence of 1 mM DTT. […]

STAT3 Glu594Ala mutant = STAT3 Glu594Ala mutant (Homo sapiens, UniProt P40763, E594A); test: FP assay against STAT3 Glu594Ala mutant; format: binding
Text: The predicted (E)-trans-configuration of the acyl hydrazone moiety in the protein-bound state was also observed in the X-ray structure of crystals of 8 grown from ethyl acetate / hexane (Supplementary Fig. S4). Substantial conformational changes of the protein are required for ligand binding (Supplementary Fig. S3), a process which can account for the observed time-dependence of inhibition by 8 (Supplementary Fig. S5). […] Substitution of the pyridyl ring for electron-rich, five-membered heteroaromatic rings is tolerated (17–19). […] This behavior is consistent with hydrogen bonding between the molecules’ carbonyl group and the backbone amide of Gln635 as proposed by the docking studies (Fig. 2b), which is expected to suffer from electron-withdrawing substituents on the phenyl ring. Further evidence for hydrogen bonding arises from the inactivity of derivative 22, in which the carbonyl group has been deleted. Substitution of the carbonyl by a sulfonyl group (compound 23) is also not tolerated, indicating specific recognition of 8 by STAT3.
This reduction tails off, consistent with the idea that inhibition of STAT3 by 8 is a slow but reversible process. […]
easily susceptible to covalent modification by nucleophiles. […] C) Activity of 8 in a fluorescence polarization assay against wild-type STAT3 or a STAT3 Glu594Ala mutant after 2 h incubation in the presence of 1 mM DTT. […]

[2] = test system: STAT3 Tyr705 phosphorylation; test: Western Blot, IL-6-stimulated STAT3 Tyr705 phosphorylation in HepG2 cells; format: cell-based, human; details: 1 h pre-treatment, 30 min 50 ng/mL IL-6
Text: (§1) An inhibitor of a STAT SH2 domain prevents phosphorylation of STATs at this conserved tyrosine residue, thereby inhibiting STAT-mediated signal transduction (Fig. 3a). Consistent with its activity in the FP assay, 8 inhibited interleukin (IL)-6-stimulated STAT3 Tyr705 phosphorylation in HepG2 cells in a dose-dependent manner (Fig. 3b). […] In contrast, tyrosine phosphorylation of STAT5 in K562 cells is not inhibited (Fig. 3d). The activity profile in cells thus reflects the selectivity profile seen in vitro (Fig. 2a, Table 1), supporting the notion that cellular activities are mediated by functional inhibition of the STAT SH2 domains.
(§2) HepG2 cells were plated in 6-well plates (Corning #3516) and allowed to reach approximately 60% confluence. The medium was then replaced with serum-free medium for 24 h. […]
(§3) Lysates were separated on a polyacrylamide gel under denaturing conditions, and transferred to a nitrocellulose membrane. STAT phosphorylation was assessed using rabbit monoclonal antibodies against the phosphorylated forms only of STAT1, STAT3 or STAT5 (Cell Signaling, 1:1000) with secondary antibody swine anti-rabbit HRP from Dako, 1:3000), followed by reblotting with rabbit monoclonal antibodies against total STAT1, STAT3 or STAT5 (Cell Signaling), and subsequently β-actin loading control. […]

[3] = test system: STAT1 Tyr701 phosphorylation; test: Western Blot, IFN-γ-stimulated STAT1 Tyr701 phosphorylation in HepG2 cells; format: cell-based, human; details: 1 h pre-treatment, 15 min 50 ng/mL IFNγ
Text: as §1, §2, §3

STAT5 phosphorylation = test: Western Blot, STAT5 tyrosine phosphorylation in K562 cells; format: cell-based, human
Text: as §1, §2, §3

STAT3 Glu594Ala mutant, sequence (P40763 whole entry E594A): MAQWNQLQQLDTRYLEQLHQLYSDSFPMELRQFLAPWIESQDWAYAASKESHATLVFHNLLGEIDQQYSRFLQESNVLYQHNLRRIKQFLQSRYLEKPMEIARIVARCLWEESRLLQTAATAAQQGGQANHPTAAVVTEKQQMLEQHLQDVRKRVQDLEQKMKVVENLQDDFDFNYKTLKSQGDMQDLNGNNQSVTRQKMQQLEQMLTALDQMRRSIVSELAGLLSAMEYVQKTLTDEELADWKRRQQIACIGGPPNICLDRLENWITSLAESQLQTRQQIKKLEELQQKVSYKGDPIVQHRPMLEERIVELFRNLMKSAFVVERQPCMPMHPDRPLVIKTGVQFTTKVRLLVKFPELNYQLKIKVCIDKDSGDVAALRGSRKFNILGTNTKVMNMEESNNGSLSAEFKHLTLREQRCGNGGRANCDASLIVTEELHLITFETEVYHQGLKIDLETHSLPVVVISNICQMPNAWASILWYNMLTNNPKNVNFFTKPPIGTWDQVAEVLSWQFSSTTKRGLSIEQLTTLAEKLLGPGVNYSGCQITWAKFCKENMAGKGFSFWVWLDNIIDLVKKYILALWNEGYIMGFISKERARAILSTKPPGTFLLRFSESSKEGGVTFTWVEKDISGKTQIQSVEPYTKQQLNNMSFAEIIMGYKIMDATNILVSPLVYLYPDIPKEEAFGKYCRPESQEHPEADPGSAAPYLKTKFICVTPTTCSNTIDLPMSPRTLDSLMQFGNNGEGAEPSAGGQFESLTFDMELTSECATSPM

In the case of CC(C)(C)c1ccc2occ(/C=N/NC(=O)c3cccnc3)c(=O)c2c1 [Compound 8], the “hydrolysis to the aldehyde (1H-NMR)” value [1] is reported as “no sign of hydrolysis; also recorded: no sign of aldehyde release”, the “activity against STAT3 Glu594Ala mutant compared to wild-type STAT3” value (STAT3 Glu594Ala mutant) is reported as “three-fold lower activity” and the IC50 (STAT3 Glu594Ala mutant; 2 h incubation, 1 mM DTT, read-out: app. IC50 against STAT3 Glu594Ala mutant) is reported as 27 ± 1 µM. The “IL-6-stimulated STAT3 Tyr705 phosphorylation” value [2] was “inhibited”, the “IFN-γ-stimulated phosphorylation of STAT1 Tyr701” value [3] was “inhibited to a lesser extent” and the “tyrosine phosphorylation of STAT5” value (STAT5 phosphorylation) was “not inhibited”.

Source: paper PMC5727211, “Development of Erasin: a chromone-based STAT3 inhibitor which induces apoptosis in Erlotinib-resistant lung cancer cells” (Scientific Reports, 2017)
